This note sets out measurements from the NIST ThermoML archive (doi:10.1016/j.fluid.2014.01.008).

± gives the expanded uncertainty stated by the source.

The conditions of this series: Crystal; DTA.

On to `O=C1C=CC(=O)O1` [maleic anhydride], for which the Normal melting temperature came out at 52.80 ± 0.5 °C.
